The text below walks through data of patent publication US20240101576A1, “HETEROCYCLIC INHIBITORS OF EGFR AND/OR HER2, FOR USE IN THE TREATMENT OF CANCER” (Scorpion Therapeutics, Inc., priority 2020, published 2024).

Some results are limits rather than exact numbers.

Common to all, as to assay type: cell-based
Experiment [1] addresses EGFR (CUTO14 cells) (Homo sapiens, UniProt P00533). As to the kind of experiment: Inhibitor activity on EGFR phosphorylation (pEGFR AlphaLISA, 2 h), CUTO14 cells. From the text:
Example B. Inhibitor Activity on EGFR phosphorylation (pEGFR)
EGFR mutant Ba/F3 cells were generated by transduction with retrovirus containing vectors expressing EGFR L858R, EGFR exon 19del, EGFR L858R/C797S, EGFR exon 20 NPG Ins D770_N771, EGFR exon 20 ASV Ins V769_D770, or EGFR exon 20 SVD Ins D770_N771 genes along with a puromycin selection marker. Transduced cells are selected with puromycin for 7 days and are then be transferred into culture media without Interleukin 3 (IL3). Surviving cells are confirmed to express EGFR by Western blot and maintained as a pool. CUTO14 cells were obtained from Dr. Robert C. Doebele at the University of Colorado. The IC50 date are included in Table 6 and Table 7.
(§1) 1.1 Cells are harvested from flask into cell culture medium and the cell number counted.
1.2 Cells are diluted with culture medium to the desired density and 40 μL of cell suspension is added into each well of 384-well cell culture plate and the seeding density is 50K cells/well (Ba/F3) or 12.5K cells/well (CUTO14).
(§2) 2 Compound Preparation and Treatment
(§3) 2.1 Test compounds are dissolved to 10 mM in a DMSO stock solution. 45 μL of stock solution is transferred to a 384 polypropylene plate (pp-plate). Perform 3-fold, 10-point dilution via transferring 15 μL compound into 30 μL DMSO using a TECAN (EVO200) liquid handler.
(§4) 2.2 Spin plates at room temperature at 1,000 RPM for 1 minute.
2.3 Transfer 5 nL of diluted compound from compound source plate into the cell plate.
2.4 After compound treatment for 2 hours, perform pEGFR detection by AlphaLISA for compound treatment plates as described in “Detection” section.
3 Detection by pEGFR AlphaLISA (Perkin-Elmer)
3.1 Plates are removed from incubators and equilibrated at room temperature for 10 minutes, and media was removed
3.2 10 μL of lysis buffer is added and plates shaken at 600 rpm for 1 hr.
3.3 Prepare acceptor mix just before use and dispense 5 μL of acceptor mix to all the wells. Shake 350 rpm for Ihr in the dark
3.4 Prepare donor mix under low light conditions prior to use. Dispense 5 μL of donor mix to all the wells. Mix well on the shaker, seal and wrap in aluminum foil and incubate 1.5 hrs at room temperature in the dark
3.5 Transfer 18.5 μL mixture to OptiPlate 384, and read using an Envision. The IC50 date were included in Table 6 and Table 7.

Experiment [2] has as its target T1, EGFR L858R (Ba/F3 cells) (Homo sapiens, UniProt P00533, L858R).
T1 construct: expressed in transfected cells; host or cells: Ba/F3 (murine pro-B cells), retroviral transduction, puromycin selection, IL3-independent pool
As to the kind of experiment: Inhibitor activity on EGFR-dependent cell growth (CellTiter-Glo, 72 h), Ba/F3 EGFR L858R. The following applies: read-out: BaF3 L858R IC50.
From the text: (§5) Example A. Inhibitor Activity on EGFR-Dependent Cell Growth
(§6) Cell lines are generated by transducing Ba/F3 cells with retroviruses containing vectors with EGFR WT, EGFR L858R, EGFR exon 19del, EGFR L858R/C797S, EGFR exon 20 NPG Ins D770_N771, EGFR exon 20 ASV Ins V769_D770, EGFR exon 20 SVD Ins D770_N771, or EGFR exon 20 FQEA Ins A763_V764 genes and a puromycin selection marker. Transduced cells are selected with puromycin for 7 days and are then be transferred into culture media without Interleukin 3 (IL3). EGFR WT cells are maintained with supplemental EGF. Surviving cells are confirmed to express EGFR by Western blot and maintained as a pool. The IC50 date were included in Table 6 and Table 7.
as §1
(§7) 1.2 Cells are diluted with culture medium to the desired density and 40 μL of cell suspension is added into each well of 384-well cell culture plate and the seeding density is 800 (FQEA, exon 19del), 600 (WT, NPG, L858R/C797S), or 400 (ASV, SVD, L858R) cells/well.
as §2, §3, §4
(§8) 2.3 Transfer 120 nL of diluted compound from compound source plate into the cell plate.
(§9) 2.4 After compound treatment for 72 hours, perform CTG detection for compound treatment plates as described in “Detection” section.
(§10) 3.1 Plates are removed from incubators and equilibrated at room temperature for 15 minutes.
(§11) 3.2 Thaw the CellTiter Glo reagents and allow to equilibrate to room temperature before the experiment.
(§12) 3.3 Add 40 μL of CellTiter-Glo reagent into each well (at 1:1 to culture medium). Then place the plates at room temperature for 30 min followed by reading on EnVision.
(§13) 4.1 Inhibition activity is calculated following the formula below:
(§14) % Inhibition=100×(LumHC−LumSample)/(LumHC−LumLC) • where HC is obtained from cells treated with 0.1% DMSO only; and LC is obtained from culture medium only.
(§15) 4.2 2. Calculate the IC50 by fitting the Curve using Xlfit (v5.3.1.3), equation 201.
(§16) Y=Bottom+(Top−Bottom)/(1+10^((Log IC50−X)*HillSlope))
(In ATP-based viability assays light output follows the ATP content of the culture.)

Experiment [3] has as its target T2, EGFR exon 20 SVD Ins D770_N771 (Ba/F3 cells) (Homo sapiens, UniProt P00533, INS770SVD).
T2 construct: expressed in transfected cells; host or cells: Ba/F3 (murine pro-B cells), retroviral transduction, puromycin selection, IL3-independent pool
As to the kind of experiment: Inhibitor activity on EGFR-dependent cell growth (CellTiter-Glo, 72 h), Ba/F3 EGFR exon 20 SVD Ins. Particulars: read-out: BaF3 SVD IC50. In a few lines: (§17)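 IC50s derive from a sigmoidal dose–response fit of CellTiter-Glo signal. The signal was normalised between […]-treated cells and cell-free medium. Ba/F3 mutant-EGFR cells, seeded at 400–800/well depending on the line, had 72 h of exposure to a 10-point, 3-fold compound series.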

Experiment [4] has as its target T3, EGFR exon 20 ASV Ins V769_D770 (Ba/F3 cells) (Homo sapiens, UniProt P00533, INS769ASV).
T3 construct: expressed in transfected cells; host or cells: Ba/F3 (murine pro-B cells), retroviral transduction, puromycin selection, IL3-independent pool
As to the kind of experiment: Inhibitor activity on EGFR-dependent cell growth (CellTiter-Glo, 72 h), Ba/F3 EGFR exon 20 ASV Ins. The following applies: read-out: BaF3 ASV IC50. In a few lines: as §17

Experiment [5] concerns the target T4, EGFR WT (Ba/F3 cells) (Homo sapiens, UniProt P00533).
T4 construct: expressed in transfected cells; host or cells: Ba/F3 (murine pro-B cells), retroviral transduction, puromycin selection, maintained with EGF
As to the kind of experiment: Inhibitor activity on EGFR-dependent cell growth (CellTiter-Glo, 72 h), Ba/F3 EGFR WT. Particulars: read-out: BaF3 WT IC50. In a few lines:
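This growth assay used Ba/F3 cells that depend on wild-type EGFR and are kept in EGF without IL3. Compounds were made up as 10 mM DMSO stocks and diluted 3-fold over 10 points. 120 nL went onto 600 cells/well. After 72 hours, 40 μL CellTiter-Glo was added and luminescence read on EnVision after 30 min.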

Experiment [6] concerns the target EGFR exon 19del (Ba/F3 cells) (Homo sapiens, UniProt P00533). Kind of experiment: Inhibitor activity on EGFR-dependent cell growth (CellTiter-Glo, 72 h), Ba/F3 EGFR exon 19del. The following applies: Ba/F3 EGFR exon 19del cell growth, read-out: BaF3 Del19 IC50.
From the text: as §5, §6, §1, §7, §2, §3, §4, §8, §9, §10, §11, §12, §13, §14, §15, §16

The target of experiment [7] is T5, EGFR exon 20 NPG Ins D770_N771 (Ba/F3 cells) (Homo sapiens, UniProt P00533, INS770NPG).
T5 construct: expressed in transfected cells; host or cells: Ba/F3 (murine pro-B cells), retroviral transduction, puromycin selection, IL3-independent pool
Kind of experiment: Inhibitor activity on EGFR-dependent cell growth (CellTiter-Glo, 72 h), Ba/F3 EGFR exon 20 NPG Ins. The following applies: read-out: BaF3 NPG IC50. In a few lines: as §17

T1 sequence (P00533 25-1210 L858R): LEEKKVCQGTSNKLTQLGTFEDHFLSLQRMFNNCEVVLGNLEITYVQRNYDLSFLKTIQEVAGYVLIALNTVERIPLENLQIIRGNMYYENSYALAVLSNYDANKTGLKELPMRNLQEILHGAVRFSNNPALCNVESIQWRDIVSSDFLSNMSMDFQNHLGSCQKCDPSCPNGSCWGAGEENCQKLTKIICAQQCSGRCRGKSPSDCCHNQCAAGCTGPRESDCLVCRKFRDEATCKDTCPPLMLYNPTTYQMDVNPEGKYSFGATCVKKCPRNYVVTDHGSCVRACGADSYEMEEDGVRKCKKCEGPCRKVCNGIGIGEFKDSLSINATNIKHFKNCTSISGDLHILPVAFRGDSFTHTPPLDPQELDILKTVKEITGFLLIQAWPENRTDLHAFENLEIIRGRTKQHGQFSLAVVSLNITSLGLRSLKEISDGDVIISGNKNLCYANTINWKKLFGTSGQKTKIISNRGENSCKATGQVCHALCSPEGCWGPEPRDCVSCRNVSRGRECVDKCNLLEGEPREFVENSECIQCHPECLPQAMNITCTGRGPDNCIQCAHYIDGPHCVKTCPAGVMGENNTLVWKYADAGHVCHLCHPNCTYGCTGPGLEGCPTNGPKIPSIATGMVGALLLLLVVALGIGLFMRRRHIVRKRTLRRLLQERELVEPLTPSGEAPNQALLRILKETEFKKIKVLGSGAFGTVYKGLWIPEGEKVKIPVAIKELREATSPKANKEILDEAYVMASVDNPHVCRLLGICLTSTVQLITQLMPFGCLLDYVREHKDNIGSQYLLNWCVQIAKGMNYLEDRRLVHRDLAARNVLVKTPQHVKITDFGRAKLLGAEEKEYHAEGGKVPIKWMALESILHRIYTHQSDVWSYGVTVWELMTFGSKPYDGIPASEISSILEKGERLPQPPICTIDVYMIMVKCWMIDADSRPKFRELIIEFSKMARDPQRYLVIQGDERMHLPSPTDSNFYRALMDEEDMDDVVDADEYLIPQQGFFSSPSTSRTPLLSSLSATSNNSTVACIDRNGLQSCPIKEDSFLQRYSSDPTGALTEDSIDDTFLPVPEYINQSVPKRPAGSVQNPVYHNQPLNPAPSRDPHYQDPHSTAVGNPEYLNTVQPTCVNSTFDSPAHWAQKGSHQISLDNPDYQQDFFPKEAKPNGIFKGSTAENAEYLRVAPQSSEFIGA
T2 sequence (P00533 with tags, fused parts or gaps INS770SVD): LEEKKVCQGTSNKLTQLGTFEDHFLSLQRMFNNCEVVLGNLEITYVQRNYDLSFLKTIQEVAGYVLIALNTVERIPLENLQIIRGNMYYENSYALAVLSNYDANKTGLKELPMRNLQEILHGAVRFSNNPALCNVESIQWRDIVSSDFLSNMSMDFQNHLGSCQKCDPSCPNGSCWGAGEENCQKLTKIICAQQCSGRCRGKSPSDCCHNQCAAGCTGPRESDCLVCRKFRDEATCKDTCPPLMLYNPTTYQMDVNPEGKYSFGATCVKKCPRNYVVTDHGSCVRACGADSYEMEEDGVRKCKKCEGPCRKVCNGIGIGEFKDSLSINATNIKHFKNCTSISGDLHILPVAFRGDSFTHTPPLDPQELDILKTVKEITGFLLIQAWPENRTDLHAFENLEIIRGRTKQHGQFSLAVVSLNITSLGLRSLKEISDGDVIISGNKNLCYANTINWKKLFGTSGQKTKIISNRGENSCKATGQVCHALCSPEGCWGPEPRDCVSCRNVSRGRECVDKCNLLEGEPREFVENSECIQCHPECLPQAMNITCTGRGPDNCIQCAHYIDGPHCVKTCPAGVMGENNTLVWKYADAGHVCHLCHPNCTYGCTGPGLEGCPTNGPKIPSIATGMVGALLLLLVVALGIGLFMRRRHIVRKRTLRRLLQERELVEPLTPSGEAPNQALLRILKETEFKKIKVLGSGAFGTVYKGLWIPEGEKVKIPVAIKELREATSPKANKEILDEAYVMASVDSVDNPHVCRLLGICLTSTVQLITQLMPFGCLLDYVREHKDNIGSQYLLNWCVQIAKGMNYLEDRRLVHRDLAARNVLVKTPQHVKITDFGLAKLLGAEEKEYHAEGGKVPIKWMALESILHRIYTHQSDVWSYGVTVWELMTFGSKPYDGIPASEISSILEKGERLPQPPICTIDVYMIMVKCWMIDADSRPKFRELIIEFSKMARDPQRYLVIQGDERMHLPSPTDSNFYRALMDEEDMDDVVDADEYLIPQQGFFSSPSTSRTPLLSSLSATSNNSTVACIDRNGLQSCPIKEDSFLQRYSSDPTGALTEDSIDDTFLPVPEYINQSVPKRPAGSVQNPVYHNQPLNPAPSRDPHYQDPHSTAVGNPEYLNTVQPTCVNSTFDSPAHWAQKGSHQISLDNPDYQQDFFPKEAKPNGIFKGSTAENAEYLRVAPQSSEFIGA
T3 sequence (P00533 with tags, fused parts or gaps INS769ASV): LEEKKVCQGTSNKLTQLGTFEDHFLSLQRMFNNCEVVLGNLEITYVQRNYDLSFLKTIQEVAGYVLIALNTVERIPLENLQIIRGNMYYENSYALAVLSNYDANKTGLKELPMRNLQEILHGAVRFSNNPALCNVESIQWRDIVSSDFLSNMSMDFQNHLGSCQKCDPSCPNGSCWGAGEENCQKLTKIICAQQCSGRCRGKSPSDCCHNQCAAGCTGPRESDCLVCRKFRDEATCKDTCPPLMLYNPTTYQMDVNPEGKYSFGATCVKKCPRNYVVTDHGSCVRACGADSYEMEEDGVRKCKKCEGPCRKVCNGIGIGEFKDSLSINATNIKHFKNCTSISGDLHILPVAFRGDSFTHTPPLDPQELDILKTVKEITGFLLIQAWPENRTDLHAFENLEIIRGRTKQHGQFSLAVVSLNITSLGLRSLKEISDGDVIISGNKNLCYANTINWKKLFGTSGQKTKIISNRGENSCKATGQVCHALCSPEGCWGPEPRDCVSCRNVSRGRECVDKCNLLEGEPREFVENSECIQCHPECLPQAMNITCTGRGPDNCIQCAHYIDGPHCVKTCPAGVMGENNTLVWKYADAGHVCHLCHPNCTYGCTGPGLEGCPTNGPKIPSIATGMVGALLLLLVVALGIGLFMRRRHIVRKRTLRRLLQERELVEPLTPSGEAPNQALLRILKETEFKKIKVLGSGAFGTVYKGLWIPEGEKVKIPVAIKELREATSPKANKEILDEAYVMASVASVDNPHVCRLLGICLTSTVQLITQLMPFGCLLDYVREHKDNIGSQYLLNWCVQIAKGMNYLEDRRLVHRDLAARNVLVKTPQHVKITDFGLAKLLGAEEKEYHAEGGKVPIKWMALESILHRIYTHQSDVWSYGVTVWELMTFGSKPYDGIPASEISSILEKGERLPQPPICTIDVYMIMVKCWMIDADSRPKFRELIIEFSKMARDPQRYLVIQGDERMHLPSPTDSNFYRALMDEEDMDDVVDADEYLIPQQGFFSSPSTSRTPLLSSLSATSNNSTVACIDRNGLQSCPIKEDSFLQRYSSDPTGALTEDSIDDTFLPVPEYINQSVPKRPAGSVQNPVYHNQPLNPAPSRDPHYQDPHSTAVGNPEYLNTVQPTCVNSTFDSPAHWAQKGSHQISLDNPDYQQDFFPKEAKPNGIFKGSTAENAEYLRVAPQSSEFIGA
Chain of EGFR (CUTO14 cells) (P00533 with tags, fused parts or gaps DUP767-769): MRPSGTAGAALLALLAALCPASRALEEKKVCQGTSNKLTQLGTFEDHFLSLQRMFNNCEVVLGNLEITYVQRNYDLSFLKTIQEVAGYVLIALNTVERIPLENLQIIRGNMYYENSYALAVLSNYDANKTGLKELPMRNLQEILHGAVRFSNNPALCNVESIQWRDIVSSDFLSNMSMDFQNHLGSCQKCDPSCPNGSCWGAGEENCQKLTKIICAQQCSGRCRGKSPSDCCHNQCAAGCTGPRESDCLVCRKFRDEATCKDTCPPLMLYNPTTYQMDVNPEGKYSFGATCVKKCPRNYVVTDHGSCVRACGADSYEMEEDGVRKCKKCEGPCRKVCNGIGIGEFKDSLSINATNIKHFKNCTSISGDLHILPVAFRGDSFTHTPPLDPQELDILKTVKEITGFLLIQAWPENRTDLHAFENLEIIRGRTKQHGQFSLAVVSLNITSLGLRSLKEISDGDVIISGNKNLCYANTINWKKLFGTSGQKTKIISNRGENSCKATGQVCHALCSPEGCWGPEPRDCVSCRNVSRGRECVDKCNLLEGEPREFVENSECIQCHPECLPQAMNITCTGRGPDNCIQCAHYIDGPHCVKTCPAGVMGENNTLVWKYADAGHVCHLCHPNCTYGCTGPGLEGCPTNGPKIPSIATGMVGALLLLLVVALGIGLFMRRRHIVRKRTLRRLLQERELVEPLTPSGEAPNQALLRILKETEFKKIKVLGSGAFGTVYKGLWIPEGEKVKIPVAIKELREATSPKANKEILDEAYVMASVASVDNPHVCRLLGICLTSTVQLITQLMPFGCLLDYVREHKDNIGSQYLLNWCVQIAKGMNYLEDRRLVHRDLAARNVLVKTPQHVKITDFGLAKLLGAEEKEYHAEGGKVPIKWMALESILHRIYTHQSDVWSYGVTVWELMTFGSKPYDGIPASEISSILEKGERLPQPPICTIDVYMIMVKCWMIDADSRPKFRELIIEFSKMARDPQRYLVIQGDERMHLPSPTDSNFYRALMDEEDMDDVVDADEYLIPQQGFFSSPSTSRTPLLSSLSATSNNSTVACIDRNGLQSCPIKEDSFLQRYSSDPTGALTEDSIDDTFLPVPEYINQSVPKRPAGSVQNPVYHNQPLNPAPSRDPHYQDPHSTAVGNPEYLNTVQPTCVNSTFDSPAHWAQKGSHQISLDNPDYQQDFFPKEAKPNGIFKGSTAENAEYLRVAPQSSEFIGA

A word on the IC50: it is the concentration needed to halve the response being measured. Consider `COc1c(Cl)cccc1Nc1c(-c2ccnc(C)n2)[nH]c2c(C[C@@H]3COCCO3)c[nH]c(=O)c12` [compound 655, 3-[(3-chloro-2-methoxyphenyl)amino]-7-[(2R)-1,4-dioxan-2-ylmethyl]-2-(2-methylpyrimidin-4-yl)-1H,5H-pyrrolo[3,2-c]pyridin-4-one], for which the IC50 in experiment [1] is under 100 nM; in experiment [2], under 100 nM; in experiment [3], under 100 nM; in experiment [4] it was under 100 nM; in experiment [5] it was 100 to 1000 nM; in experiment [6] it was under 100 nM. In addition, the concentration for half-maximal inhibition (IC50) in experiment [7] is under 100 nM.
Consider `COc1c(F)cccc1Nc1c(-c2ccnc(Nc3cnn(C)n3)n2)[nH]c2c1C(=O)NCC2` [compound 593, 3-[(3-fluoro-2-methoxyphenyl)amino]-2-{2-[(2-methyl-1,2,3-triazol-4-yl)amino]pyrimidin-4-yl}-1H,5H,6H,7H-pyrrolo[3,2-c]pyridin-4-one], for which the IC50 in experiment [1] was under 100 nM; in experiment [3], under 100 nM; in experiment [4], under 100 nM; in experiment [5], 100 to 1000 nM; in experiment [7], under 100 nM.
Turning to `COc1c(Cl)cccc1Nc1c(-c2ccncc2)[nH]c2c1C(=O)NCC2C[C@@H]1CN(C)CCO1` (single isomer, unassigned) [Compound 646], the IC50 in experiment [1] was under 100 nM; in experiment [3], over 1000 nM; in experiment [4], over 1000 nM; in experiment [5], over 1000 nM; in experiment [7], over 1000 nM.
With `COc1c(Cl)cccc1Nc1c(-c2ccnc(Nc3cnn(C)n3)n2)[nH]c2c1C(=O)NCC2` [compound 592, 3-[(3-chloro-2-methoxyphenyl)amino]-2-{2-[(2-methyl-1,2,3-triazol-4-yl)amino]pyrimidin-4-yl}-1H,5H,6H,7H-pyrrolo[3,2-c]pyridin-4-one], the IC50 in experiment [1] was under 100 nM; in experiment [3], under 100 nM; in experiment [4], under 100 nM; in experiment [5] it was 100 to 1000 nM; in experiment [7] it was under 100 nM.
Turning to `C=CC(=O)N1CCC2(CC1)CNC(=O)c1c2[nH]c(-c2ccnc(C)n2)c1Nc1cccc(F)c1OC` [compound 644], the IC50 in experiment [1], in experiment [3], in experiment [4], in experiment [5] and in experiment [7] was under 100 nM each time.
Turning to `C=CC(=O)N1CCC2(CC1)CNC(=O)c1c2[nH]c(-c2ccncn2)c1Nc1cccc(F)c1OC` [Compound 611, 3′-[(3-fluoro-2-methoxyphenyl)amino]-1-(prop-2-enoyl)-2′-(pyrimidin-4-yl)-5′,6′-dihydro-1′H-spiro[piperidine-4,7′-pyrrolo[3,2-c]pyridin]-4′-one], the concentration for half-maximal inhibition (IC50) in experiment [1], in experiment [2], in experiment [3], in experiment [4], in experiment [5] and in experiment [6] was under 100 nM in each case. In addition, the IC50 in experiment [7] was under 100 nM.
`COc1c(F)cccc1Nc1c(-c2ccnc(C)n2)[nH]c2c1C(=O)NCC21CCN(C(=O)/C=C/CN(C)C)CC1` [compound 649]: the IC50 was 100 to 1000 nM in experiment [1]; 100 to 1000 nM in experiment [3]; 100 to 1000 nM in experiment [4]; over 1000 nM in experiment [5]; 100 to 1000 nM in experiment [7].
Regarding `C=CC(=O)N1CCC2(CC1)CNC(=O)c1c2[nH]c(-c2ccnc(C)n2)c1Nc1cc(F)cc(F)c1OC` [compound 641], the IC50 was under 100 nM in experiment [1]; under 100 nM in experiment [3]; under 100 nM in experiment [4]; 100 to 1000 nM in experiment [5]; under 100 nM in experiment [7].
As to `C=CC(=O)N1CCC2(CC1)CNC(=O)c1c2[nH]c(-c2ccncn2)c1Nc1cc(F)cc(F)c1OC` [compound 612], the half-inhibitory concentration (IC50) was under 100 nM in experiment [1]; under 100 nM in experiment [3]; under 100 nM in experiment [4]; 100 to 1000 nM in experiment [5]; under 100 nM in experiment [7].
Turning to `COc1c(Cl)cccc1Nc1c(-c2ccncc2F)[nH]c2c1C(=O)NC[C@@H]2C[C@@H]1CN(C)CCO1` [compound 790], the concentration for half-maximal inhibition (IC50) was under 100 nM in experiment [1]; under 100 nM in experiment [3]; under 100 nM in experiment [4]; 100 to 1000 nM in experiment [5]; under 100 nM in experiment [7].
Consider `COc1c(F)cccc1Nc1c(-c2ccncn2)[nH]c2c1C(=O)NCC21CCN(C(=O)/C=C/CN(C)C)CC1` [compound 650], for which the concentration for half-maximal inhibition (IC50) is under 100 nM in experiment [1]; 100 to 1000 nM in experiment [3]; 100 to 1000 nM in experiment [4]; over 1000 nM in experiment [5]; 100 to 1000 nM in experiment [7].
As to `COc1c(Cl)cccc1Nc1c(-c2ccncn2)[nH]c2c(C[C@@H]3COCCO3)c[nH]c(=O)c12` [compound 656], the concentration for half-maximal inhibition (IC50) in experiment [1] was under 100 nM; in experiment [2], under 100 nM; in experiment [3], under 100 nM; in experiment [4], under 100 nM; in experiment [5], over 1000 nM; in experiment [6], under 100 nM. The half-inhibitory concentration (IC50) in experiment [7] is under 100 nM.
`C=CC(=O)N1CCC2(CC1)CNC(=O)c1c2[nH]c(-c2ccncc2F)c1Nc1cc(F)cc(F)c1OC` [compound 610]: the IC50 in experiment [1] is under 100 nM; in experiment [3], under 100 nM; in experiment [4], under 100 nM; in experiment [5], 100 to 1000 nM; in experiment [7], under 100 nM.
